# According to patent US20230139445A1, “BACTERIAL CELLS WITH IMPROVED TOLERANCE TO DIACIDS” (priority 2016, published 2023):
# Read-outs that look alike come from different tables or passages of the source.
# Experiments:
# [1] = test system: Escherichia coli K-12 MG1655 and evolved isolates; format: cell-based; conditions: 55 g/L malic acid
# Method in brief: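 Wild-type MG1655 and evolved isolates, precultured overnight in M9 + 1% glucose at 37 °C, were diluted into M9 + 1% glucose. Growth at 37 °C, 225 rpm, scanned every 15 min; pixel values calibrated to OD600. Diacids tested as sodium salts or neutralized to pH 7.0.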
# [2] = test system: Escherichia coli K-12 MG1655; experiment: Growth of K-12 MG1655 in varying concentrations of fumaric, itaconic, malic and succinic acid, Growth Profiler; format: cell-based
# Description: Five colonies from wild-type K-12 MG1655 and 10 individual colonies deriving from each population were inoculated into 300 μL M9+1% glucose in 96 well deepwell plates and incubated in a 300 rpm plate shaker at 37° C. The next day, cells were diluted 10× in M9+1% glucose and 30 μL was transferred into clear-bottomed 96 well half-deepwell plates (with rectangular wells) containing M9+1% glucose and M9+1% glucose+52.78 g/L glutaric acid or 55.56 g/L adipic acid, such that the final concentration of glutaric acid or adipic acid was 47.5 g/L or 50 g/L, respectively. In addition, cryogenic glycerol stocks of the overnight culture were saved in a 96 well plate format. Half deepwell plates were incubated at 37° C. with 225 rpm shaking in a Growth Profiler (Enzyscreen), with optical scans of the plates taken at 15 minute intervals. Green pixel values integrated over a 1 mm diameter circular area in each well were converted to OD600 values using a previously determined calibration between OD600 and green pixel values.
# Additionally, each evolved isolate was tested for cross-tolerance toward other dicarboxylic acids of interest. […] All diacids tested were either the neutral sodium salts, or the free diacid was neutralized with sodium hydroxide to pH 7.0 for testing.
structure (smiles),measurement,setting,value
O=C(O)CC(O)C(=O)O (centres unmarked) [malic acid],growth rate μ (mean),[1]; strain ADIP1-1,0.333 h⁻¹
same,lag time tlag (mean),[1]; strain ADIP1-1,12.8 h
same,growth rate μ (mean),[1]; strain ADIP1-9,0.336 h⁻¹
same,lag time tlag (mean),[1]; strain ADIP1-9,10.7 h
same,growth rate μ (mean),[1]; strain ADIP2-5,0.338 h⁻¹
same,lag time tlag (mean),[1]; strain ADIP2-5,17.9 h
same,growth rate μ (mean),[1]; strain ADIP2-6,0.348 h⁻¹
same,lag time tlag (mean),[1]; strain ADIP2-6,16.8 h
same,growth rate μ (mean),[1]; strain ADIP2-10,0.347 h⁻¹
same,lag time tlag (mean),[1]; strain ADIP2-10,16.8 h
same,growth rate μ (mean),[1]; strain ADIP3-2,0.318 h⁻¹
same,lag time tlag (mean),[1]; strain ADIP3-2,10.7 h
same,growth rate μ (mean),[1]; strain ADIP3-4,0.347 h⁻¹
same,lag time tlag (mean),[1]; strain ADIP3-4,9.9 h
same,growth rate μ (mean),[1]; strain ADIP3-8,0.329 h⁻¹
same,lag time tlag (mean),[1]; strain ADIP3-8,11.4 h
same,growth rate μ (mean),[1]; strain ADIP4-1,0.275 h⁻¹
same,lag time tlag (mean),[1]; strain ADIP4-1,12.1 h
same,growth rate μ (mean),[1]; strain ADIP4-8,0.238 h⁻¹
same,lag time tlag (mean),[1]; strain ADIP4-8,13.4 h
same,growth rate μ (mean),[1]; strain ADIP5-2,0.299 h⁻¹
same,lag time tlag (mean),[1]; strain ADIP5-2,10.1 h
same,growth rate μ (mean),[1]; strain ADIP5-6,0.404 h⁻¹
same,lag time tlag (mean),[1]; strain ADIP5-6,10.2 h
same,growth rate μ (mean),[1]; strain ADIP6-3,0.295 h⁻¹
same,lag time tlag (mean),[1]; strain ADIP6-3,11.6 h
same,growth rate μ (mean),[1]; strain ADIP6-9,0.250 h⁻¹
same,lag time tlag (mean),[1]; strain ADIP6-9,12.7 h
same,growth rate μ (mean),[1]; strain ADIP6-10,0.323 h⁻¹
same,lag time tlag (mean),[1]; strain ADIP6-10,10.0 h
same,growth rate μ (mean),[1]; strain ADIP7-2,0.329 h⁻¹
same,lag time tlag (mean),[1]; strain ADIP7-2,10.3 h
same,growth rate μ (mean),[1]; strain ADIP7-5,0.326 h⁻¹
same,lag time tlag (mean),[1]; strain ADIP7-5,10.2 h
same,growth rate μ (mean),[1]; strain ADIP8-3,0.194 h⁻¹
same,lag time tlag (mean),[1]; strain ADIP8-3,14.4 h
same,growth rate μ (mean),[1]; strain ADIP8-7,0.202 h⁻¹
same,lag time tlag (mean),[1]; strain ADIP8-7,14.9 h
same,growth rate μ (mean),[1]; strain ADIP8-10,0.202 h⁻¹
same,lag time tlag (mean),[1]; strain ADIP8-10,14.2 h
same,growth rate μ (mean),[1]; strain GLUT1-3,0.294 h⁻¹
same,lag time tlag (mean),[1]; strain GLUT1-3,13.5 h
same,growth rate μ (mean),[1]; strain GLUT1-9,0.259 h⁻¹
same,lag time tlag (mean),[1]; strain GLUT1-9,15.3 h
same,growth rate μ (mean),[1]; strain GLUT1-10,0.286 h⁻¹
same,lag time tlag (mean),[1]; strain GLUT1-10,19.2 h
same,growth rate μ (mean),[1]; strain GLUT2-1,0.273 h⁻¹
same,lag time tlag (mean),[1]; strain GLUT2-1,13.7 h
same,growth rate μ (mean),[1]; strain GLUT2-9,0.270 h⁻¹
same,lag time tlag (mean),[1]; strain GLUT2-9,12.5 h
same,growth rate μ (mean),[1]; strain GLUT2-10,0.282 h⁻¹
same,lag time tlag (mean),[1]; strain GLUT2-10,12.2 h
same,growth rate μ (mean),[1]; strain GLUT3-5,0.257 h⁻¹
same,lag time tlag (mean),[1]; strain GLUT3-5,15.4 h
same,growth rate μ (mean),[1]; strain GLUT3-7,0.234 h⁻¹
same,lag time tlag (mean),[1]; strain GLUT3-7,15.5 h
same,growth rate μ (mean),[1]; strain GLUT3-9,0.252 h⁻¹
same,lag time tlag (mean),[1]; strain GLUT3-9,20.5 h
same,growth rate μ (mean),[1]; strain GLUT4-1,0.264 h⁻¹
same,lag time tlag (mean),[1]; strain GLUT4-1,15.9 h
same,growth rate μ (mean),[1]; strain GLUT4-4,0.264 h⁻¹
same,lag time tlag (mean),[1]; strain GLUT4-4,16.5 h
same,growth rate μ (mean),[1]; strain GLUT4-10,0.250 h⁻¹
same,lag time tlag (mean),[1]; strain GLUT4-10,15.6 h
same,growth rate μ (mean),[1]; strain GLUT5-4,0.272 h⁻¹
same,lag time tlag (mean),[1]; strain GLUT5-4,15.3 h
same,growth rate μ (mean),[1]; strain GLUT5-5,0.275 h⁻¹
same,lag time tlag (mean),[1]; strain GLUT5-5,16.6 h
same,growth rate μ (mean),[1]; strain GLUT5-9,0.246 h⁻¹
same,lag time tlag (mean),[1]; strain GLUT5-9,16.4 h
same,growth rate μ (mean),[1]; strain GLUT6-4,0.251 h⁻¹
same,lag time tlag (mean),[1]; strain GLUT6-4,14.5 h
same,growth rate μ (mean),[1]; strain GLUT6-5,0.241 h⁻¹
same,lag time tlag (mean),[1]; strain GLUT6-5,13.8 h
same,growth rate μ (mean),[1]; strain GLUT6-10,0.245 h⁻¹
same,lag time tlag (mean),[1]; strain GLUT6-10,14.8 h
same,growth rate μ (mean),[1]; strain GLUT7-2,0.275 h⁻¹
same,lag time tlag (mean),[1]; strain GLUT7-2,16.1 h
same,growth rate μ (mean),[1]; strain GLUT7-6,0.247 h⁻¹
same,lag time tlag (mean),[1]; strain GLUT7-6,21.9 h
same,growth rate μ (mean),[1]; strain GLUT7-7,0.185 h⁻¹
same,lag time tlag (mean),[1]; strain GLUT7-7,19.1 h
same,growth rate μ (mean),[1]; strain GLUT8-5,0.180 h⁻¹
same,lag time tlag (mean),[1]; strain GLUT8-5,15.8 h
same,growth rate μ (mean),[1]; strain GLUT8-6,0.208 h⁻¹
same,lag time tlag (mean),[1]; strain GLUT8-6,32.7 h
same,growth rate μ (mean),[1]; strain GLUT8-9,0.192 h⁻¹
same,lag time tlag (mean),[1]; strain GLUT8-9,47.7 h
same,growth rate μ (mean),[1]; strain MG1655 (Table 26),0.235 h⁻¹
same,lag time tlag (mean),[1]; strain MG1655 (Table 26),17.1 h
same,growth rate μ (mean),[1]; strain MG1655 (Table 27),0.222 h⁻¹
same,lag time tlag (mean),[1]; strain MG1655 (Table 27),16.5 h
same,μ (mean),"[2]; growth rate of K-12 MG1655, 10 g/L diacid (sodium salt)",0.686 h^1
same,μ (mean),"[2]; growth rate of K-12 MG1655, 20 g/L diacid (sodium salt)",0.639 h^1
same,μ (mean),"[2]; growth rate of K-12 MG1655, 30 g/L diacid (sodium salt)",0.526 h^1
same,μ (mean),"[2]; growth rate of K-12 MG1655, 40 g/L diacid (sodium salt)",0.410 h^1
same,μ (mean),"[2]; growth rate of K-12 MG1655, 50 g/L diacid (sodium salt)",0.287 h^1
same,μ (mean),"[2]; growth rate of K-12 MG1655, 60 g/L diacid (sodium salt)",0.154 h^1
same,tlag (mean),"[2]; lag time of K-12 MG1655, 10 g/L diacid (sodium salt)",5.9 h
same,tlag (mean),"[2]; lag time of K-12 MG1655, 20 g/L diacid (sodium salt)",6.6 h
same,tlag (mean),"[2]; lag time of K-12 MG1655, 30 g/L diacid (sodium salt)",8.0 h
same,tlag (mean),"[2]; lag time of K-12 MG1655, 40 g/L diacid (sodium salt)",11.1 h
same,tlag (mean),"[2]; lag time of K-12 MG1655, 50 g/L diacid (sodium salt)",16.9 h
same,tlag (mean),"[2]; lag time of K-12 MG1655, 60 g/L diacid (sodium salt)",28.3 h
